Like-named read-outs stand apart in the source and are kept apart here.
Assays:
[1] = target: T1, G6PD (Homo sapiens, UniProt P11413); experiment: decrease in G6PD activity in synovial lining cells of human rheumatoid tissue maintained in vitro; type: cell-based; set-up: synovial lining cells of human rheumatoid tissue maintained in vitro; from tissue; host or cells: human rheumatoid synovial tissue (synovial lining cells), maintained in vitro; conditions: mean±SEM
From the text: The percentage decreases in […] activity (mean±SEM) in the synovial lining cells of human rheumatoid tissue maintained in vitro, induced by naphthoquinone of formula I (R=H, X=O), including compounds outside the scope of the invention, are given in Table 2.

[2] = redox potential (E1/8) against a standard calomel electrode; type: physicochemical; conditions: for E1/2 (mV): Table 2
[3] = tested on: chronic RA; experiment: therapeutic efficacy by intra-articular injection in chronic RA patients; type: in vivo, human; conditions: intra-articular injections
From the text: Other soluble compounds of the invention are menadiol diphosphate, menadiol disulphate and 2-methyl-1,4-naphthohydroquinone bis(hydrogen succinate), sodium salt.

[4] = chemical stability and reactivity; type: physicochemical; conditions: no double bond between positions 2 and 3
[5] = target: T1, G6PD; experiment: G6PD activity before and after intra-articular injection in patients with chronic arthritic inflammation; type: in vivo
Description: (§1) Two human patients suffering from chronic arthritic inflammation were given intra-articular injections of menadione bisulphite. The G6PD activity (mean integrated extinction ×10^3 /10 min) and lysosomal latency (% bound activity) were measured before and after injection. The G6PD activity decreased from 423 to 188 in one case and from 245 to 127 in the other; the lysosomal latency increased, respectively from 0 to 13 and from 0 to 31 (normal values are around 40% latency).

[6] = tested on: lysosomal latency; experiment: lysosomal latency before and after intra-articular injection in patients with chronic arthritic inflammation; type: in vivo, human; conditions: before injection 0, normal around 40%
Description: as §1

[7] = tested on: 6-phosphogluconate dehydrogenase (6PGD); experiment: 6PGD in synovial lining cells of arthritic rabbits (Example 2); type: in vivo, rabbit; conditions: 25 mg/kg orally twice a week, six weeks; olive oil alone 8.2±1.1
Description: (§2) In each of separate groups of six, rabbits were treated with the same volume of either olive oil alone or dimethoxynaphthoquinone in olive oil for six weeks after the initiation of arthritis (six weeks after challenge). The treatment was 25 mg/kg orally twice a week.
(§3) The rabbits were investigated for the concentration of G6PD, 6PGL and 6PGD in synovial lining cells. The respective mean values (±SEM) for the treatment of olive oil alone were 15.4±1.9, 2.5±0.3 and 8.2±1.1; the results for those treated with dimethoxynaphthoquinone were 7.7±1.2, negligible and 4.6±1.1.

[8] = tested on: glucose 6-phosphate dehydrogenase (G6PD); experiment: G6PD in synovial lining cells of arthritic rabbits (Example 2); type: in vivo, rabbit
Description: as §2, §3

[9] = tested on: 6-phosphogluconolactonase (6PGL); experiment: 6PGL in synovial lining cells of arthritic rabbits (Example 2); type: in vivo, rabbit; conditions: 25 mg/kg orally twice a week, six weeks; olive oil alone 2.5±0.3
Description: as §2, §3

[10] = solubility; type: physicochemical
[11] = tested on: immune arthritis; conditions: rabbits fed by gavage, cited from earlier work
[12] = tested on: neotetrazolium chloride; conditions: sections of various tissues; compared with phenazine methosulphate; cited from earlier work
[13] = tested on: 6-phosphogluconolactonase (6PGL); experiment: 6PGL activity in synovial lining and desquamating cells of arthritic rabbits treated with menadione epoxide; type: in vivo, rabbit
Description: (§4) Twenty-two female New Zealand white rabbits (initial weight 1.5-2.0 kg) were immunised subcutaneously between the scapulae, with 0.5 ml of complete Freund's adjuvant containing 2.5 mg of ovalbumin (Sigma). A booster inoculation was given two weeks later. Four weeks after this, the right knee was challenged with an intra-articular injection (0.5 ml) of sterile saline containing ovalbumin (10 mg/ml). One week before this; twice a week for the next two weeks; and weekly thereafter, the temperature of both knees was measured on the medial side of the patella by means of a Digi-Sense thermocouple thermometer (Cole-Palmer Instrument Co., Chicago, Ill., U.S.A.). They were skin-tested before challenge to ensure that the cell-mediated immunity was equivalent in the treated and control rabbits. […] They were killed in pairs, treated and untreated, by intravenous injection of phenobarbitone sodium at various intervals from five to nine weeks later. After removal, the synovial tissue was cut into pieces of not greater than 0.5 cm^3; these were immersed for up to 1 min in a 5% solution of polyvinyl alcohol containing 5% CaCl2.2H2 O (Chayen et al, 1973) and then chilled to -70 ° C. in n-hexane (BDH: low in aromatic hydrocarbons grade). The tissue was stored in dry tubes at -70° C. and examined within two weeks. […]

[14] = tested on: glucose 6-phosphate dehydrogenase (G6PD); experiment: G6PD activity in synovial lining and desquamating cells of arthritic rabbits treated with menadione epoxide; type: in vivo, rabbit
Description: as §4

[15] = tested on: challenged joint; experiment: established immune (ovalbumin) arthritis in rabbits, oral menadione epoxide: joint temperature and degree of inflammation; type: in vivo, rabbit (New Zealand white)
Description: Twenty-two female New Zealand white rabbits (initial weight 1.5-2.0 kg) were immunised subcutaneously between the scapulae, with 0.5 ml of complete Freund's adjuvant containing 2.5 mg of ovalbumin (Sigma). A booster inoculation was given two weeks later. Four weeks after this, the right knee was challenged with an intra-articular injection (0.5 ml) of sterile saline containing ovalbumin (10 mg/ml). One week before this; twice a week for the next two weeks; and weekly thereafter, the temperature of both knees was measured on the medial side of the patella by means of a Digi-Sense thermocouple thermometer (Cole-Palmer Instrument Co., Chicago, Ill., U.S.A.). They were skin-tested before challenge to ensure that the cell-mediated immunity was equivalent in the treated and control rabbits. […] They were killed in pairs, treated and untreated, by intravenous injection of phenobarbitone sodium at various intervals from five to nine weeks later. After removal, the synovial tissue was cut into pieces of not greater than 0.5 cm^3; these were immersed for up to 1 min in a 5% solution of polyvinyl alcohol containing 5% CaCl2.2H2 O (Chayen et al, 1973) and then chilled to -70 ° C. in n-hexane (BDH: low in aromatic hydrocarbons grade). The tissue was stored in dry tubes at -70° C. and examined within two weeks.
Sections were cut (10 μm) in a Bright's cryostat (cabinet temperature of -30° C.) with the knife cooled with solid carbon dioxide. The sections were flash-dried on to slides taken from the ambient temperature of the laboratory (Chayen et al, 1973) and stored briefly in a desiccator before being tested for enzymatic activity.
Depending on the amount of tissue, sections were taken from up to fifteen regions of each challenged joint and stained with 0.1% toluidine blue in 0.1M acetate buffer, pH 6.1. They were assessed for thickening of the synovial lining cell layer; degree of infiltration by both chronic and acute inflammatory cells; and fibrosis. Each of these criteria was evaluated on a scale that ranged from 0 to ++. A value based on all these criteria was given for the response in each challenged joint and the degree of inflammation of the whole joint was assessed on an arbitrary scale of - to ++.

T1 sequence (P11413 2-515 limits assumed): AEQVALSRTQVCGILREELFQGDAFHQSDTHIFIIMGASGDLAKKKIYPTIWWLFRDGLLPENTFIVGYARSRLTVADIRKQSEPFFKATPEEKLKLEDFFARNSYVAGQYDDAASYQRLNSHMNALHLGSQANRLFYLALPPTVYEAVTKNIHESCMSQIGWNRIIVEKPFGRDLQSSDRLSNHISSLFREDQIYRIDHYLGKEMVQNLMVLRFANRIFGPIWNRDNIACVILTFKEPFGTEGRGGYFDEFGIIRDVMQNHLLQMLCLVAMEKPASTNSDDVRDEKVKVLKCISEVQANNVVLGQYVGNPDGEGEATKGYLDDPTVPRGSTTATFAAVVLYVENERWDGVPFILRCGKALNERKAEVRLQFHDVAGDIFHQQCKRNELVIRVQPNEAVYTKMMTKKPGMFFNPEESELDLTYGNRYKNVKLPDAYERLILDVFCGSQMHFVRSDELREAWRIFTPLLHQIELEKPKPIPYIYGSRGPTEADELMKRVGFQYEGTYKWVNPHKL

CC1=C(SCCC(N)C(=O)O)C(=O)c2ccccc2C1=O (centres unmarked) [3-homocysteinylmenadione, reference compound]
% decrease in G6PD [1]: 25 ± 9.7%
E1/2 (mV) [2]: -190 mV

CC1(S(=O)(=O)O)CC(=O)c2ccccc2C1=O (centres unmarked) [menadione bisulphite, 2-methyl-l,4-dioxotetralin-sulphonate]
therapeutic efficacy [3]: demonstrated
reactivity with thiols [4]: unreactive
G6PD activity after injection ([5]; first patient, before injection 423): 188 mean integrated extinction ×10^3 /10 min
G6PD activity after injection ([5]; second patient, before injection 245): 127 mean integrated extinction ×10^3 /10 min
redox potential (E1/8) measured in human plasma ([2]; human plasma): -640 mV
redox potential compared with menadione ([2]; versus menadione): higher redox potential than menadione
lysosomal latency after injection ([6]; first patient): 13 % bound activity
lysosomal latency after injection ([6]; second patient): 31 % bound activity

COC1=C(OC)C(=O)c2ccccc2C1=O [dimethoxynaphthoquinone, 2,3-dimethoxy-1,4-naphthoquinone]
concentration of 6PGD in synovial lining cells (mean ±SEM) [7]: 4.6±1.1
concentration of G6PD in synovial lining cells (mean ±SEM) ([8]; 25 mg/kg orally twice a week, six weeks, olive oil alone 15.4±1.9): 7.7±1.2
effect on all three enzyme activities: G6PD ([8]; summary in words for G6PD, 6PGL and 6PGD): greatly reduced
% decrease in G6PD [1]: 49 ± 14.0%
concentration of 6PGL in synovial lining cells (mean ±SEM) [9]: negligible
E1/2 (mV) [2]: -250 mV

CC1=C(SC[C@H](NC(=O)CC[C@H](N)C(=O)O)C(=O)NCC(=O)O)C(=O)c2ccccc2C1=O [3-glutathionylmenadione, reference compound]
% decrease in G6PD [1]: 37 ± 13.0%
E1/2 (mV) [2]: -170 mV

CC1=CC(=O)c2ccccc2C1=O [menadione, 2-methyl-1,4-naphthoquinone]
solubility [10]: lipid soluble
% decrease in G6PD [1]: 38 ± 6.9%
chronic inflammation assessed histologically and by enzyme activity in synovial lining cells ([11]; versus control animals): marked diminution
effect on immune arthritis [11]: significantly ameliorates
effect on immune arthritis ([11]; listed as Menadione): effective
E1/2 (mV) [2]: -220 mV
redox potential (E1/8) ([2]; recorded against a standard calomel electrode, 90% ethanol-0.005M acetate buffer pH 4.0): -220 mV
transfer of reducing equivalents to neotetrazolium chloride [12]: as effective as phenazine methosulphate

CC12OC1C(=O)c1ccccc1C2=O (centres unmarked) [menadione epoxide]
6PGL activity in the desquamating cells ([13]; desquamating cells, despite very elevated G6PD): no equivalent increase
effect on 6PGL activity ([13]; synovial lining cells): decrease both activities towards normal levels
G6PD activity in the desquamating cells ([14]; desquamating cells, as against 25.5 units in "rheumatoid" intact lining cells and 6 units in normal joints): 45.7 units
effect on G6PD activity ([14]; synovial lining cells): decrease both activities towards normal levels
median overall difference in temperature expressed per day (group) ([15]; from two weeks after treatment until killed, control median 0.589 (0.308 to 0.687), p=0.04): 0.096 °C day
overall degree of inflammation in the challenged joint ([15]; one of the twelve treated rabbits (totally negative)): -
overall difference in temperature between challenged and unchallenged knees, expressed per day (single rabbit) ([15]; one treated rabbit, from two weeks after start of treatment until killed, 25 mg/kg bi-weekly by gavage, control rabbit 0.7110): 0.096 °C
inflammation assessed by temperature in vivo, visual inspection post mortem and histological examination ([15]; oral administration, established chronic inflammation): marked decrease in the inflammation

CC1=C(O)C(=O)c2ccccc2C1=O [phthiocol]
% decrease in G6PD [1]: 47 ± 11.5%
E1/2 (mV) [2]: -355 mV

CC1=C(C)C(=O)c2ccccc2C1=O [dimethylnaphthoquinone, 2,3-dimethyl-1,4-naphthoquinone]
% decrease in G6PD [1]: 61%
E1/2 (mV) [2]: -290 mV
